This note sets out measurements from PubChem BioAssay (NCI).

Each structure is given as a SMILES string.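 Where inhibition never reached the appropriate level, the endpoint shown equals the highest concentration tested. Otherwise, values were interpolated linearly from a five-concentration, 48-hour dose response in 96-well plates. GI50: concentration for 50% inhibition of growth. The concentration for full growth arrest is given as TGI.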

Some test systems named below: HOP-62 NSCLC; MALME-3M melanoma; KM12 colon; K-562 leukemia; LOX IMVI melanoma; HOP-92 NSCLC; NCI-H23 lung; MCF7 breast; ACHN renal; SF-295 CNS.
Experiment in all cases: inhibition of tumour cell growth, NCI panel, 48 h

For `COc1cc(NN=C(c2ccc(O)cc2)c2ccc(O)cc2)c([N+](=O)[O-])cc1[N+](=O)[O-]`, the GI50 is 5.29 µM in the experiment on HOP-62 NSCLC; 17.2 µM in the experiment on MALME-3M melanoma; 4.86 µM in the experiment with KM12 colon; 3.92 µM in the experiment with K-562 leukemia; 3.76 µM in the experiment with LOX IMVI melanoma; 12.1 µM in the experiment with HOP-92 NSCLC. Besides, the GI50 in the experiment with NCI-H23 lung was 13.5 µM; with MCF7 breast, 5.71 µM; with ACHN renal it was 5.23 µM; with SF-295 CNS it was 1.73 µM. Further, the TGI in the experiment on HOP-62 NSCLC was 20.3 µM; in the experiment on MALME-3M melanoma it was 31.6 µM; in the experiment on KM12 colon it was 25.7 µM; in the experiment with K-562 leukemia, more than 100 µM; in the experiment on LOX IMVI melanoma, 18.6 µM; with HOP-92 NSCLC, 31.6 µM. Moreover, the TGI worked out at 34.5 µM in the experiment on NCI-H23 lung, 21.9 µM with MCF7 breast, 20.3 µM in the experiment on ACHN renal and 16.5 µM with SF-295 CNS.
As for `COc1cc2c3c(n(CCCN)c(=O)c2cc1OC)-c1ccc(F)cc1C3=O`, the GI50 in the experiment with HOP-62 NSCLC was 0.544 µM; with MALME-3M melanoma, 9.22 µM; in the experiment on KM12 colon it was 5.95 µM; in the experiment on K-562 leukemia, 1.24 µM; with LOX IMVI melanoma it was 0.955 µM; with HOP-92 NSCLC it was 8.91 µM. In addition, the GI50 in the experiment with NCI-H23 lung is 1.65 µM; in the experiment with MCF7 breast it was 0.618 µM; with ACHN renal, 0.861 µM; with SF-295 CNS, 0.564 µM. In addition, the TGI was determined as 2.05 µM in the experiment with HOP-62 NSCLC; 28.5 µM with MALME-3M melanoma; 20.3 µM with KM12 colon; 5.28 µM with K-562 leukemia; 4.68 µM in the experiment with LOX IMVI melanoma; 42.9 µM with HOP-92 NSCLC. Also, the TGI with NCI-H23 lung worked out at 9.39 µM; in the experiment with MCF7 breast, 7.25 µM; with ACHN renal it was 6.14 µM; with SF-295 CNS, 14.9 µM.
As for `C(CCc1nnc2c(n1)CCCC2)Cc1nnc2c(n1)CCCC2`, the TGI with HOP-62 NSCLC, in the experiment with MALME-3M melanoma, in the experiment with KM12 colon, with K-562 leukemia, in the experiment with LOX IMVI melanoma and with HOP-92 NSCLC was more than 100 µM each time. Also, the TGI with NCI-H23 lung, with MCF7 breast, in the experiment with ACHN renal and with SF-295 CNS was more than 100 µM throughout.
For the molecule `CC(C)(C)OC(=O)NCCCCCCCCn1c2c(c3ccccc3c1=O)C(=O)c1ccccc1-2`, the GI50 in the experiment on HOP-62 NSCLC is 11.6 µM; with MALME-3M melanoma, more than 15.9 µM; in the experiment with KM12 colon, more than 40.4 µM; in the experiment with K-562 leukemia, more than 50 µM; with LOX IMVI melanoma, more than 32 µM; in the experiment with HOP-92 NSCLC it was 9.05 µM. Also, the GI50 with NCI-H23 lung is 20.4 µM; in the experiment with MCF7 breast, more than 50 µM; in the experiment with ACHN renal it was 10.9 µM; with SF-295 CNS, 11.1 µM. Besides, the TGI with HOP-62 NSCLC is 35 µM; in the experiment with MALME-3M melanoma it was more than 43.7 µM; in the experiment on KM12 colon it was more than 50 µM; in the experiment on K-562 leukemia, more than 50 µM; with LOX IMVI melanoma, more than 50 µM; in the experiment with HOP-92 NSCLC, 21 µM. Further, the TGI with NCI-H23 lung is more than 50 µM; in the experiment with MCF7 breast, more than 50 µM; with ACHN renal, more than 30 µM; in the experiment with SF-295 CNS, more than 41.6 µM.
Turning to `COc1ccc2cc(C(=O)/C=C/c3cccc(Cl)c3Cl)ccc2c1`, the GI50 in the experiment with HOP-62 NSCLC is 15.4 µM; with MALME-3M melanoma, more than 100 µM; in the experiment on KM12 colon, 8.08 µM; in the experiment with K-562 leukemia, 4.93 µM; in the experiment on LOX IMVI melanoma, 0.651 µM; with HOP-92 NSCLC, 22.1 µM. The GI50 in the experiment on NCI-H23 lung is 6.42 µM; in the experiment with MCF7 breast, 1.28 µM; in the experiment with ACHN renal, 3.76 µM; with SF-295 CNS, 5.94 µM. Besides, the TGI was 38.9 µM with HOP-62 NSCLC; more than 100 µM in the experiment with MALME-3M melanoma; 64.3 µM in the experiment with KM12 colon; more than 100 µM with K-562 leukemia; more than 24.9 µM in the experiment with LOX IMVI melanoma; more than 79.7 µM in the experiment on HOP-92 NSCLC. For the same molecule, the TGI is 29.4 µM in the experiment with NCI-H23 lung, more than 100 µM with MCF7 breast, 33 µM in the experiment on ACHN renal and more than 100 µM with SF-295 CNS.
As for `Cn1ccc(=Nc2ccc(NC(=O)c3ccc(N=c4ccn(C)c5ccc([N+](=O)[O-])cc45)cc3)cc2)cc1`, the GI50 in the experiment on HOP-62 NSCLC is 8.25 µM; with MALME-3M melanoma, 2.41 µM; in the experiment on KM12 colon, 7.26 µM; in the experiment with K-562 leukemia, 6.75 µM; in the experiment on LOX IMVI melanoma, 5.37 µM; in the experiment with HOP-92 NSCLC, 42.4 µM. Further, the GI50 with NCI-H23 lung was 43.9 µM; in the experiment with MCF7 breast it was 2.36 µM; in the experiment with ACHN renal it was more than 100 µM; with SF-295 CNS it was 12.8 µM. Moreover, the TGI with HOP-62 NSCLC is more than 100 µM; in the experiment with MALME-3M melanoma, 37.9 µM; with KM12 colon it was more than 100 µM; in the experiment with K-562 leukemia, more than 100 µM; in the experiment with LOX IMVI melanoma it was more than 100 µM; with HOP-92 NSCLC, more than 100 µM. The TGI with NCI-H23 lung is more than 100 µM; in the experiment on MCF7 breast it was more than 100 µM; with ACHN renal it was more than 100 µM; with SF-295 CNS, 72.6 µM.
Consider `CC[N+](CC)=c1ccc2nc3c(cc(NCc4ccccc4)c4ccccc43)oc-2c1`, for which the GI50 in the experiment with HOP-62 NSCLC was 0.512 µM; in the experiment with MALME-3M melanoma, 0.172 µM; in the experiment with KM12 colon, 0.292 µM; in the experiment on K-562 leukemia, 0.121 µM; in the experiment with LOX IMVI melanoma it was 0.127 µM; in the experiment on HOP-92 NSCLC, 0.217 µM. Also, the GI50 with NCI-H23 lung is 0.148 µM; in the experiment on MCF7 breast, 0.165 µM; in the experiment with ACHN renal, 0.398 µM; in the experiment with SF-295 CNS, 0.2 µM. In addition, the TGI with HOP-62 NSCLC stood at 1.86 µM; in the experiment on MALME-3M melanoma, 0.358 µM; with KM12 colon, 1.32 µM; with K-562 leukemia, 0.724 µM; in the experiment with LOX IMVI melanoma it was 0.299 µM; in the experiment with HOP-92 NSCLC, 1.33 µM. The TGI in the experiment with NCI-H23 lung turned out to be 0.352 µM; with MCF7 breast, 0.474 µM; with ACHN renal, 1.98 µM; in the experiment on SF-295 CNS it was 0.51 µM.
For the molecule `Cc1ccc(N=C2CSc3nnc(-c4csc5c4CCCC5)n3N2)cc1`, the GI50 was 0.24 µM in the experiment with HOP-62 NSCLC; 26.5 µM with MALME-3M melanoma; 0.226 µM with KM12 colon; 0.156 µM in the experiment with K-562 leukemia; 0.302 µM with LOX IMVI melanoma; 1.97 µM with HOP-92 NSCLC. The GI50 with NCI-H23 lung is 0.295 µM; with MCF7 breast it was 0.165 µM; with ACHN renal, 2.94 µM; in the experiment on SF-295 CNS it was 0.148 µM. Besides, the TGI with HOP-62 NSCLC, with MALME-3M melanoma, in the experiment on KM12 colon, in the experiment on K-562 leukemia, with LOX IMVI melanoma and with HOP-92 NSCLC was more than 50 µM in each case. Moreover, the TGI is more than 50 µM with NCI-H23 lung, more than 50 µM in the experiment with MCF7 breast, more than 50 µM in the experiment on ACHN renal and 14 µM with SF-295 CNS.
On to `Nc1ccc(C#Cc2cncnc2Nc2ccc(OCc3cccc(F)c3)c(Cl)c2)cc1`, for which the GI50 was more than 17.3 µM with HOP-62 NSCLC; more than 25 µM with MALME-3M melanoma; 10.2 µM with KM12 colon; 11.4 µM in the experiment with K-562 leukemia; 12.8 µM in the experiment on LOX IMVI melanoma; 10.6 µM with HOP-92 NSCLC. The GI50 in the experiment with NCI-H23 lung is more than 20.5 µM; with MCF7 breast it was 11.9 µM; in the experiment with ACHN renal it was 6.87 µM; with SF-295 CNS, 10.6 µM. The TGI with HOP-62 NSCLC, in the experiment on MALME-3M melanoma, in the experiment with KM12 colon, in the experiment with K-562 leukemia, in the experiment with LOX IMVI melanoma and in the experiment with HOP-92 NSCLC was more than 25 µM throughout. In addition, the TGI with NCI-H23 lung, in the experiment on MCF7 breast, in the experiment with ACHN renal and with SF-295 CNS was more than 25 µM throughout.
As to `NC(=O)c1[nH]nc(C2OC(CO)C(O)C2O)c1O` (stereo not given), the TGI in the experiment with HOP-62 NSCLC worked out at 478 µM; with MALME-3M melanoma it was 2660 µM; in the experiment on KM12 colon it was 2980 µM; in the experiment with K-562 leukemia, 2290 µM; in the experiment with LOX IMVI melanoma, 309 µM; with HOP-92 NSCLC, 279 µM. Also, the TGI with NCI-H23 lung was 386 µM; in the experiment on MCF7 breast it was 1060 µM; in the experiment with ACHN renal it was 1730 µM; in the experiment on SF-295 CNS, 848 µM.
Regarding `COc1cc2cc(Oc3ccc(NC(=O)Nc4ccccc4)cc3)c(C)nc2cc1OCCN1CCCCC1`, the GI50 with HOP-62 NSCLC is 5.96 µM; in the experiment with MALME-3M melanoma, 5.96 µM; with KM12 colon, 6.8 µM; in the experiment on K-562 leukemia it was 1.05 µM; with LOX IMVI melanoma, 5.38 µM; in the experiment with HOP-92 NSCLC it was 2.72 µM. Moreover, the GI50 is 6.4 µM with NCI-H23 lung, 5.14 µM in the experiment with MCF7 breast, 5.74 µM with ACHN renal and 6 µM in the experiment with SF-295 CNS. Besides, the TGI with HOP-62 NSCLC stood at 12.9 µM; with MALME-3M melanoma, 10.9 µM; in the experiment with KM12 colon, 14.3 µM; in the experiment with K-562 leukemia, 3.7 µM; with LOX IMVI melanoma it was 10.1 µM; in the experiment on HOP-92 NSCLC, 7.66 µM. Further, the TGI turned out to be 13.7 µM in the experiment with NCI-H23 lung, 10 µM in the experiment with MCF7 breast, 10.3 µM with ACHN renal and 11.2 µM with SF-295 CNS.
In the case of `CCc1cccc(CC)c1NC(=S)NC(=O)c1ccc(Br)cc1`, the TGI in the experiment with HOP-62 NSCLC is more than 100 µM; with MALME-3M melanoma, more than 77.1 µM; in the experiment with KM12 colon, more than 100 µM; in the experiment on K-562 leukemia, more than 100 µM; with LOX IMVI melanoma, more than 56.2 µM; in the experiment with HOP-92 NSCLC it was 64.6 µM. Besides, the TGI with NCI-H23 lung was more than 100 µM; with MCF7 breast, 71.7 µM; in the experiment with ACHN renal it was more than 100 µM; in the experiment on SF-295 CNS, more than 100 µM.
